From patent publication US9187471B2, “Pyrido [4,3-b] indole and pyrido [3,4-b] indole derivatives and methods of use” (Medivation Technologies, Inc., priority 2010, dated 2015)

Legend:
[1] = molecular target: T1, human recombinant histamine H1 receptor (Homo sapiens, UniProt P35367); test: Histamine H1 radioligand binding ([3H]Pyrilamine); conditions: read-out: Histamine H1 Binding (1 μM), percent inhibition of specific binding; compound at 1 μM; 1.2 nM [3H]Pyrilamine
T1 construct: expressed in transfected cells; host or cells: CHO-K1
How it was run: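 Results expressed as percent inhibition of specific [3H]pyrilamine binding, counted on filters after washing. Receptor source: CHO-K1 cells expressing recombinant human H1, in modified Tris-HCl buffer (50 mM, pH 7.4; 2 mM MgCl2, 100 mM NaCl, 250 mM sucrose). 1 μM pyrilamine defined non-specific binding.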

[2] = molecular target: T2, rat adrenergic α1A receptor (Rattus norvegicus, UniProt P43140); test: Adrenergic α1A radioligand binding ([3H]Prazosin); conditions: read-out: Adrenergic (0.1 μM) a1A, percent inhibition of specific binding; compound at 0.1 μM; 0.25 nM [3H]Prazosin
T2 construct: rat adrenergic α1A receptor obtained from Wistar Rat submaxillary glands; from tissue; host or cells: Wistar rat submaxillary glands
T2 sequence (P43140 1-466): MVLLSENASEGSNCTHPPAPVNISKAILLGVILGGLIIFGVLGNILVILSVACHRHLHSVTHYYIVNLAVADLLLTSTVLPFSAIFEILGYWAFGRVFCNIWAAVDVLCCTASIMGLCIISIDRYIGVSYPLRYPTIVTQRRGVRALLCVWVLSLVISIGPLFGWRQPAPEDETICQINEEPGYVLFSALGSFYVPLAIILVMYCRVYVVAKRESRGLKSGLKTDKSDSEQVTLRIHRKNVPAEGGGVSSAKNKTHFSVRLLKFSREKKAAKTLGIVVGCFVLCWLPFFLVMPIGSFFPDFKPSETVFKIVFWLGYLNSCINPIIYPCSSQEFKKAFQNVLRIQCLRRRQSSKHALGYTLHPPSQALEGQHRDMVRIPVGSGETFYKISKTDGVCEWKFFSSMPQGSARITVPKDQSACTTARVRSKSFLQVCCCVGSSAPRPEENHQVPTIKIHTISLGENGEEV
How it was run: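 Wistar rat submaxillary gland receptor in 50 mM Tris-HCl pH 7.4 with 0.5 mM EDTA, incubated with compound and 0.25 nM [3H]Prazosin for 60 min at 25 °C.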

[3] = molecular target: T3, human recombinant serotonin (5-Hydroxytryptamine) 5-HT5A receptor (Homo sapiens, UniProt P47898); test: Serotonin 5-HT5A radioligand binding ([3H]LSD); conditions: compound at 0.1 μM; read-out: Inhibition of ligand binding, Serotonin 5-HT5A (percent inhibition of specific binding)
T3 construct: expressed in transfected cells; host or cells: CHO-K1
Protocol: Compounds of the invention were incubated with 1.7 nM [^3H]Lysergic acid diethylamide (LSD) for 60 min at 37° C. […] Receptor proteins were filtered and washed, the filters were counted to determine [^3H]LSD specifically bound.

[4] = molecular target: T4, human recombinant serotonin (5-Hydroxytryptamine) 5-HT7 receptor (Homo sapiens, UniProt P34969); test: Serotonin 5-HT7 radioligand binding ([3H]LSD); conditions: compound at 0.1 μM; read-out: Inhibition of ligand binding, Serotonin 5-HT7 (percent inhibition of specific binding)
T4 construct: expressed in transfected cells; host or cells: CHO
Protocol: Lysergic acid diethylamide (LSD) for 120 min. at 25° C. […] Receptor proteins were filtered and washed, the filters were then counted to determine [^3H]LSD specifically bound.

[5] = molecular target: T5, human recombinant adrenergic α2C receptor (Homo sapiens, UniProt P18825); test: Adrenergic α2C radioligand binding ([3H]MK-912); conditions: read-out: Adrenergic (0.1 μM) a2C, percent inhibition of specific binding; compound at 0.1 μM; 1 nM [3H]MK-912
T5 construct: expressed in transfected cells; host or cells: insect Sf9 cells
T5 sequence (P18825 1-462): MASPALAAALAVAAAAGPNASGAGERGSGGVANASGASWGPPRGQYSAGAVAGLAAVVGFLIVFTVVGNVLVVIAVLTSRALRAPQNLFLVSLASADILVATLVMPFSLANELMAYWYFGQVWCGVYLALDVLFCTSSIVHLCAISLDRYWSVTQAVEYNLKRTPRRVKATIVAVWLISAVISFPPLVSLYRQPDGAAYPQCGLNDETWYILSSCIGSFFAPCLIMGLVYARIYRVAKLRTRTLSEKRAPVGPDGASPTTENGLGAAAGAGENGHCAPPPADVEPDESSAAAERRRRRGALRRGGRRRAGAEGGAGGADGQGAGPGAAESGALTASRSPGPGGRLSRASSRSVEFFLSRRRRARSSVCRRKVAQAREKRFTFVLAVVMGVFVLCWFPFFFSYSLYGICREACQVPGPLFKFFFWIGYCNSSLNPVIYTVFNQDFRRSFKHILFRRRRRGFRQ
How it was run: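 Membranes from Sf9 cells expressing the human receptor, in 50 mM Tris-HCl pH 7.4 with 12.5 mM MgCl2 and 2 mM EDTA, incubated with compound and 1 nM [3H]MK-912 for 60 min at 25 °C. Non-specific binding defined with 10 μM WB-4101. Filter-bound radioactivity counted; percent inhibition of specific binding reported.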

[6] = molecular target: T6, human recombinant dopamine D2L receptor (Homo sapiens, UniProt P14416); test: Dopamine D2L radioligand binding ([3H]Spiperone); conditions: 0.16 nM [3H]Spiperone; for inhibition at 1 µM: read-out: Dopamine D2L (1 μM), percent inhibition of specific binding, compound at 1 μM; for inhibition at 0.1 µM: read-out: Dopamine D2L (0.1 μM), percent inhibition of specific binding, compound at 0.1 μM
T6 construct: expressed in transfected cells; host or cells: CHO
Protocol: Non-specific binding was estimated in the presence of 10 μM Haloperidol. Receptor proteins were filtered and washed, the filters were then counted to determine [^3H]Spiperone specifically bound.

[7] = molecular target: T7, human recombinant serotonin (5-Hydroxytryptamine) 5-HT6 receptor (Homo sapiens, UniProt P50406); test: Serotonin 5-HT6 radioligand binding ([3H]LSD); conditions: compound at 0.1 μM; read-out: Inhibition of ligand binding, Serotonin 5-HT6 (percent inhibition of specific binding)
T7 construct: expressed in transfected cells; host or cells: HeLa
Source text: Receptor proteins were filtered and washed, the filters were then counted to determine [3H]LSD specifically bound.

T1 sequence (P35367 whole entry): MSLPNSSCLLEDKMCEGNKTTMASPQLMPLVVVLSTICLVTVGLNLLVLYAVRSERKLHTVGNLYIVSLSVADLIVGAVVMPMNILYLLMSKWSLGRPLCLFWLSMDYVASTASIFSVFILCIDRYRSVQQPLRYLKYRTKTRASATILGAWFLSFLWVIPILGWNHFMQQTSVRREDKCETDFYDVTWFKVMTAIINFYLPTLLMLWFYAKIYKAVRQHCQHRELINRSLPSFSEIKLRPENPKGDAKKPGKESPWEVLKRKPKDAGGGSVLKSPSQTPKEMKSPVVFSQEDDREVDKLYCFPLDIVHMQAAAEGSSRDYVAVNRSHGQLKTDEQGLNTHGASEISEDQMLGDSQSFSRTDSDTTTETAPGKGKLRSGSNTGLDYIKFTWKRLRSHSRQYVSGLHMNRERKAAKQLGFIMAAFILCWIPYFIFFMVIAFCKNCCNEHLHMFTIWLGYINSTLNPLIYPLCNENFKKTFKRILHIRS
T7 sequence (P50406 whole entry): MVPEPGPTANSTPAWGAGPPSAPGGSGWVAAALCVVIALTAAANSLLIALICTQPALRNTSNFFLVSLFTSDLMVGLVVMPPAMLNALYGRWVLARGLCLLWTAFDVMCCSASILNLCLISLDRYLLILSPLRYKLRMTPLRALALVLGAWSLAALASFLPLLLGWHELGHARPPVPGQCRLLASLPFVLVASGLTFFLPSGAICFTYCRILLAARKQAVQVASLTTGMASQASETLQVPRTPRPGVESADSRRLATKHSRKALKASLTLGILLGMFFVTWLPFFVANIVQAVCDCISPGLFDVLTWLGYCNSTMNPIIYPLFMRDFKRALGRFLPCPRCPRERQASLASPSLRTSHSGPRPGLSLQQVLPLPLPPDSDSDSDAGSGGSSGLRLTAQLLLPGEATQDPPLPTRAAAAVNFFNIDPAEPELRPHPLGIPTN
T6 sequence (P14416 whole entry): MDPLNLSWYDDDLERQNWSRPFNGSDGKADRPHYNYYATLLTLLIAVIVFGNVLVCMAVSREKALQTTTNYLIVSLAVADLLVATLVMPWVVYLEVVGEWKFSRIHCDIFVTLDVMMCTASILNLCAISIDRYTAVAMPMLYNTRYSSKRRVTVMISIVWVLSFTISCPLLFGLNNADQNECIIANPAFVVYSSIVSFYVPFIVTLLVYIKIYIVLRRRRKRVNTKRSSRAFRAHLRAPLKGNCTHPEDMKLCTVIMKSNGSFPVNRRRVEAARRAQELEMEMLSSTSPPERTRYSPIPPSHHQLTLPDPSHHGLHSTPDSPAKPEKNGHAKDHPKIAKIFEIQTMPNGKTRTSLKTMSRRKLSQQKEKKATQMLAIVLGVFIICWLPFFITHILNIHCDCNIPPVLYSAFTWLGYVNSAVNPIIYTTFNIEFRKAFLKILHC
T3 sequence (P47898 whole entry): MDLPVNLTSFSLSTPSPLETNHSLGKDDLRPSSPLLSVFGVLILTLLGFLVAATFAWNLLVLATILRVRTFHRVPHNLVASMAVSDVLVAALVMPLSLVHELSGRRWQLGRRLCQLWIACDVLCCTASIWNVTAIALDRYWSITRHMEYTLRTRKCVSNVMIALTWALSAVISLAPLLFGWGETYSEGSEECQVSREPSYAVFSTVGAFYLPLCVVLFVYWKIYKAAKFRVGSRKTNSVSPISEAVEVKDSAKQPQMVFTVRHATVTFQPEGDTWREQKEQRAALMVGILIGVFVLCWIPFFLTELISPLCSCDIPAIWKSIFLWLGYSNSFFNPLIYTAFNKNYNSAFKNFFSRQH
T4 sequence (P34969 whole entry): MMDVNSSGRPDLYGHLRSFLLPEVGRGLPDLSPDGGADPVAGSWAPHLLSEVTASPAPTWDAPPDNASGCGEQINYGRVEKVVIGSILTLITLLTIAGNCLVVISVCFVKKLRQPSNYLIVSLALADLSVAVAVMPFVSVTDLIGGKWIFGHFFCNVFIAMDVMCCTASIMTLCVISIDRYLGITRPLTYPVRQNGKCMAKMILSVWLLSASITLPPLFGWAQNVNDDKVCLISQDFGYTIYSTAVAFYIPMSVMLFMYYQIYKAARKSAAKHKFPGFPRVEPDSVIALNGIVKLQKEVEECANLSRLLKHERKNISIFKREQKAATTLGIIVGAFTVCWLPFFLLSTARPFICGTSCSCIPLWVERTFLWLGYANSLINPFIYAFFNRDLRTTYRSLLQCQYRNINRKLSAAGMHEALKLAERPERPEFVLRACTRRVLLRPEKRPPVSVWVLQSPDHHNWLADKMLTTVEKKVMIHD

Row | SMILES | inhibition at 1 µM [1] | inhibition at 0.1 µM [2] | inhibition at 0.1 µM [3] | inhibition at 0.1 µM [4] | inhibition at 0.1 µM [5] | inhibition at 1 µM [6] | inhibition at 0.1 µM [7] | inhibition at 0.1 µM [6]
1 | Cc1ccc2c(c1)c1c(n2-c2ccc(-c3c(C)noc3C)cn2)CCN(C)C1 [Compound No. 137, 4-(6-(2,8-dimethyl-3,4-dihydro-1H-pyrido[4,3-b]indol-5(2H)-yl)pyridin-3-yl)-3,5-dimethylisoxazole] | 3% | 17% | 31% | 40% | -1% | 6% | 2% | 
2 | Cc1ccc2c(c1)c1c(n2-c2cccc(-c3ccc(S(C)(=O)=O)cc3)c2)CCN(C)C1 [Compound No. 131, 2,8-dimethyl-5-(4′-(methylsulfonyl)biphenyl-3-yl)-2,3,4,5-tetrahydro-1H-pyrido[4,3-b]indole] | 20% | 0% | 19% | 2% | 13% | 4% | -3% | 
3 | Cc1ccc2c(c1)c1c(n2-c2cccc(-c3ccc(F)cc3)c2)CCN(C)C1 [Compound 61, 5-(4′-fluorobiphenyl-3-yl)-2,8-dimethyl-2,3,4,5-tetrahydro-1H-pyrido[4,3-b]indole] | 42% | -5% | 24% | 48% | 8% | 36% | 18% | 
4 | Cc1csc(-c2cccc(-n3c4c(c5cc(C)ccc53)CN(C)CC4)c2)c1 [Compound No. 63, 2,8-dimethyl-5-(3-(4-methylthiophen-2-yl)phenyl)-2,3,4,5-tetrahydro-1H-pyrido[4,3-b]indole] | 31% | -8% | 25% | 25% | 10% | 19% | 5% | 
5 | Cc1ccc2c(c1)c1c(n2-c2cccc(-c3cncc4ccccc34)c2)CCN(C)C1 [Compound No. 67, 5-(3-(isoquinolin-4-yl)phenyl)-2,8-dimethyl-2,3,4,5-tetrahydro-1H-pyrido[4,3-b]indole] | 32% | 1% | 39% | 28% | 8% | 61% | 29% | 
6 | Cc1ccc2c(c1)c1c(n2-c2cccc(-c3ccc(O)nc3)c2)CCN(C)C1 [Compound 52, 5-(3-(2,8-dimethyl-3,4-dihydro-1H-pyrido[4,3-b]indol-5(2H)-yl)phenyl)pyridin-2-ol] | 14% | -1% | 55% | 14% | 2% | 21% | 17% | 
7 | Cc1ccc2c(c1)c1c(n2-c2ccc(-c3ccncc3)cn2)CCN(C)C1 [Compound No. 132, 5-(3,4′-bipyridin-6-yl)-2,8-dimethyl-2,3,4,5-tetrahydro-1H-pyrido[4,3-b]indole] | 3% | 11% | 2% | 23% | -2% | 18% | 2% | 
8 | CNC(=O)c1ccc(-c2cscc2-n2c3c(c4cc(C)ccc42)CN(C)CC3)cn1 [Compound No. 73] | 20% | 71% | 48% | 66% | 2% | 21% | 21% | 
9 | Cc1cc(C)c2c(c1)c1c(n2-c2cccc(-c3ccncc3)c2)CCN(C)C1 [Compound 57, 2,6,8-trimethyl-5-(3-(pyridin-4-yl)phenyl)-2,3,4,5-tetrahydro-1H-pyrido[4,3-b]indole] | 45% | 3% | 26% | 39% | 3% | 31% | 15% | 
10 | Cc1csc(-c2cscc2-n2c3c(c4cc(C)ccc42)CN(C)CC3)c1 [Compound 50] | 54% | 65% | 81% | 97% | 90% | 36% | 36% | 
11 | Cc1ccc2c(c1)c1c(n2-c2cscc2-c2cc3ccccc3s2)CCN(C)C1 [Compound No. 151] | 11% | 64% | 102% | 90% | 52% |  | 28% | 1%
12 | Cc1ccc2c(c1)c1c(n2-c2cccc(-c3ccc(F)nc3)c2)CCN(C)C1 [Compound 44, 5-(3-(6-fluoropyridin-3-yl)phenyl)-2,8-dimethyl-2,3,4,5-tetrahydro-1H-pyrido[4,3-b]indole] | 41% | 15% | 61% | 40% | 10% | 23% | 21% | 
13 | Cc1ccc2c(c1)c1c(n2-c2cccc(-c3cnn(C)c3)c2)CCN(C)C1 [Compound 46, 2,8-dimethyl-5-(3-(1-methyl-1H-pyrazol-4-yl)phenyl)-2,3,4,5-tetrahydro-1H-pyrido[4,3-b]indole] | 19% | 16% | 32% | 51% | 6% | 20% | 14% | 
14 | Cc1ccc2c(c1)c1c(n2-c2ccc(-c3ccc(F)nc3)cn2)CCN(C)C1 [Compound No. 142, 5-(6′-fluoro-3,3′-bipyridin-6-yl)-2,8-dimethyl-2,3,4,5-tetrahydro-1H-pyrido[4,3-b]indole] | 7% | 46% | 23% | 22% | 5% | 13% | -12% | 
15 | Cc1ccc2c(c1)c1c(n2-c2cscc2C(=O)N(C)C)CCN(C)C1 [Compound No. 152] | 16% | 6% | 14% | 15% | 12% |  | 22% | 4%
